Assay results from patent US8492347B2, “Peptide for induction of immune tolerance as treatment for systemic lupus erythematosus” (The Regents of the University of California, priority 2007, dated 2013).
Where two headings read alike, the source gives them in different places. Where no end group is shown, it is not given here. [ ]: non-standard residue; d: D form.

How the values were obtained:
[1] = tested on: BWF1 mice; test: FACS of CD8+ Foxp3+ T cells in mesenteric nodes and spleen after peptide gavage; format: in vivo
Description: Lastly, we synthesized the D-form of pCons, for the purpose of administering it orally since D-forms are resistant to acid degradation. […] Specifically, studies have been completed in which BWF1 mice were fed 5 days a week out of every 30 days saline, low dose pCons (25 ug), middle dose (100 ug) or high dose (250 ug) by gavage. Both D and L-forms are being studied. Most of those mice were sacrificed to study characteristics of cells in mesenteric lymph nodes and spleens. Observations from these studies are disclosed in the following paragraphs.
First, we observed that CD8+ T cells that express Foxp3 (known to be inhibitory T cells for SLE) were induced in mesenteric nodes and spleen cells by the highest dose (250 ug) of D-peptide and by the middle dose (100 ug) and high dose of L-peptide. Thus the administration of low/middle dose D-peptide and of low dose L-peptide was not effective. Data were obtained by FACS analysis of total node populations, with percent of CD8+ Foxp3+ cells in untreated mice <1%, compared to 3-6% of total CD8+ cells in the effective doses of peptide. These changes are high enough to be clinically significant according to our earlier data with L-peptide given i.v.

[2] = tested on: naïve BWF1 CD4+ CD25− helper T cells cultured with naïve BWF1 B cells; test: anti-DNA antibody-forming cells in cultures of BWF1 B cells plus CD4+ CD25− helper T cells after i.v. peptide; format: in vivo, mice
Description: FIG. 1 provides a bar graph of data showing that the intravenous administration of either 500 or 250 ug of D-pCons is effective in suppressing anti-DNA antibody production by naïve BWF1 CD4+ CD25− helper T cells cultured with naïve BWF1 B cells. The numbers of splenic B cells making IgG anti-DNA dropped from 65 per 10^6 B cells in the untreated group to 30-32 in the tolerized groups.
FIG. 2 provides a bar graph of data from studies of L-pCons and D-pCons. Both D-pCons and L-pCons peptides were given once i.v. and spleen cells harvested 2 weeks later. Note that for L-pCons, the combination of naïve B cells plus CD4+ CD25− helper T cells gave a mean of 160 anti-DNA antibody-forming cells per 10^6 B cells (column 3), whereas addition of CD4+ CD25+ Treg from tolerized mice to the culture reduced the AFC to 25 per 10^6 B cells (column 4). These differences were statistically significant, p<0.001. Note also that the suppression was abrogated by incubation of the cultures with antibodies to GITR (column 6) or TGFb-LAP (column 7), but not by CTLA4-Ig (column 8).
(§1) For tolerance induction, ten-to-twelve week-old BWF1 mice received a single i.v. dose of 1 mg of one of the peptides, dissolved in saline, as reported previously (see, e.g. Singh et al., J Clin Invest 1995; 96:2990-6). Controls in selected experiments were either treated with saline or control peptides.
Assays were performed to measure anti-DNA Ab according to art accepted protocols (see, e.g. Singh et al., J Clin Invest 1995; 96:2990-6; Hahn et al., Arthritis Rheum 2001; 44:432-41; La Cava et al., J Immunol 2004; 173:3542-8; Hahn et al., Ann NY Acad Sci 2005; 1051:433-41; Hahn et al., J Immunol 2005; 175:7728-37; Singh et al., J Immunol 2007; 178:7649-57). […] After 5 days, culture supernatants were collected, concentrated, and analyzed for anti-DNA IgG by ELISA. […]

[3] = tested on: BWF1 mice; test: single adoptive transfer of CD8+ Ti from tolerized mice to irradiated syngeneic recipients; format: in vivo; details: single transfer of 10×10^6 CD8+ T cells from spleens of tolerized mice
Source text: FIG. 4 provides graphs of data showing the CD8+ Ti induced by i.v. administration of L-pCons are potent in suppressing nephritis (left panel) and prolonging survival in vivo (right panel) (see, e.g. Hahn et al., J Immunol 2005; 175:7728-37).

[4] = tested on: BWF1 mice; test: survival and clinical disease in BWF1 mice given L-pCons intravenously; format: in vivo; details: 1 mg i.v. monthly from age 10 weeks
Description: FIG. 3 provides a graph of data showing the suppression of clinical disease that occurs in BWF1 mice treated monthly from age 10 weeks with 1 mg of L-pCons administered intravenously.
as §1
Using 50% mortality times, the lifespan is prolonged 30-32 weeks. […] A similar study has been started with D-pCons administered orally; results are anticipated in 30 weeks. Serum is obtained at regular intervals for anti-DNA testing; urine is tested for proteinuria monthly (when 2+ appears mice are tested weekly), and survival is measured daily.
Since this increase in survival was small (6 weeks), we developed an algorithm based on 435 VH sequence peptides to create an artificial 15-mer peptide containing amino acid sequences which bind to I-Ed (one of the MHC Class II molecules in BWF1) and to be stimulatory for BWF1 T cells—which we called pConsensus or pCons. […] The control artificial 15-mer, pNegative (pNeg) was constructed to bind I-Ed but not stimulate T cells. […]

[5] = tested on: BWF1 mice; details: cited from earlier work
[6] = high dose i.v. tolerogen once a month, BWF1 females

Sequence	induction of CD8+ T cells that express Foxp3 ([1]; low dose 25 ug by gavage)	induction of CD8+ T cells that express Foxp3 ([1]; middle dose 100 ug by gavage)	suppression of anti-DNA antibody production ([2]; 125 ug dose i.v.)	numbers of splenic B cells making IgG anti-DNA ([2]; 500 or 250 ug i.v. (tolerized groups), untreated group 65)	effect of peptide-induced CD8+ Ti on nephritis and survival [3]	appearance of IgG anti-DNA in serum and of nephritis [4]	lifespan prolonged, using 50% mortality times [4]	appearance of anti-DNA, anti-phospholipid, and proteinuria [5, 6]	prolongation of survival [5, 6] [week]	prolongs survival ([5]; started after nephritis and anti-DNA antibodies have appeared)	prolongs survival ([5]; started prior to disease onset)	anti-DNA antibody-forming cells (AFC) ([2]; peptide once i.v., spleen cells 2 weeks later, CD4+ CD25+ Treg from tolerized mice added to culture, 160 without Treg, p<0.001) [per 10^6 B cells]
FIEWNKLRFRQGLEW ([dF][dI][dE][dW][dN][dK][dL][dR][dF][dR][dQ]G[dL][dE][dW]) [D-pCons]	not effective	not effective	not effective in inducing suppression	30-32 per 10^6 B cells	–	–	–	–	–	–	–	–
FIEWNKLRFRQGLEW [L-pCons]	–	–	–	–	potent in suppressing nephritis and prolonging survival in vivo	significant delay	30-32 weeks	significant delay	24	3-4 months	4-5 months	25
